Here are results for 1 substance from patent US20230365639A1, “DEFENSIN FRAGMENT DERIVED LIPOPEPTIDES FOR TREATMENT OF DRUG-RESISTANT MICROORGANISMS” (priority 2020, published 2023).

A short description of data set [1]: Cellular toxicity, WST-1 cell proliferation assay. It counts as cell-based. Here is the method:
(§1) Methods: Cellular toxicity was determined by Lactate dehydrogenase concentration and WST-1 cell proliferation assay as well as hemolysis assay.

Data set [2] is described as follows: Acute tolerability after oral administration. Format: in vivo, C57BL/6N mice. The text has this:
Methods: C57BL/6N mice were generated and maintained (including breeding and housing) at the animal facilities of the Helmholtz Centre for Infection Research (HZI) under enhanced specific pathogen-free (SPF) conditions (Stehr et al., 2009). Animals used in the experiments were gender and age matched. Female and male mice with an age of 8-12 weeks were used. Sterilized food and water ad libitum were provided. Mice were kept under a strict 12-hour light cycle (lights on at 7:00 am and off at […]) and housed in groups of two to six mice per cage. All mice were euthanized by asphyxiation with CO2 and cervical dislocation. All animal experiments were performed in agreement with the local government of Lower Saxony, Germany (approved permission No. 33.19-42502-04-18/2499).
Age- and gender-matched mice received two doses of peptides (0, 125 μg or 250 μg) solved in 100 μl PBS orally per day. Bodyweight and appearance were recorded. The following day, mice were sacrificed and stomach, kidney, spleen, liver, small intestine, cecum and colon were removed for histological scoring. Around 1 ml of blood was taken from the heart to measure inflammatory markers including creatinine in the kidney and the enzyme levels of glutamate-oxalacetate-transaminase (GOT) in the liver.

Data set [3] deals with S. Typhimurium. As to the kind of experiment: Acute gastrointestinal infection caused by S. Typhimurium. It counts as in vivo, mice. As to the method:
Methods: Analysis of bacterial loads in feces. Fresh fecal samples were collected and weighted. Samples were homogenized in 1 ml LB media by bead-beating with 1 mm zirconia/silica beads twice for 25 s using a Mini-Beadbeater-96 (BioSpec). To determine CFUs, dilutions of homogenized samples were plated on LB plates with 50 μg/ml kanamycin. Analysis of bacterial loads in intestinal content and systemic organs. All mice were euthanized by asphyxiation with CO2 at indicated time points. Intestinal tissues (small intestine, cecum, colon) were removed aseptically. To collect intestinal content, organs were flushed with PBS. Organs were opened longitudinally, cleaned thoroughly with PBS and weighted. Organs and content were homogenized in PBS using a Polytron homogenizer ([…]). Dilutions of homogenized samples were plated on LB plates containing 50 μg/ml kanamycin to determine CFUs. For S. Typhimurium infection experiments, age- and sex-matched mice between 10 and 14 weeks of age were used. Both-female and male mice were used in experiments. Water and food were withdrawn for 4 hours before mice were treated with 20 mg/mouse of streptomycin by oral gavage. Afterwards, mice were supplied with water and food ad libitum. 20 hours after streptomycin treatment, water and food were withdrawn again, 4 hours before the mice were orally infected with 10^5 CFU of S. Typhimurium in 200 μl PBS. […]

Data set [4] has as its system bacteria from the ESKAPE panel. It counts as cell-based. Particulars: broth microdilution, 1.17-150 μM peptide, 2 hours. Here is the method: Methods: Broth microdilution assay. Log-phase bacteria were collected by centrifugation (2500 rpm, 10 min, 4° C.), washed twice with 10 mM sodium phosphate buffer containing 1% (w/v) TSB and the optical density at 600 nm was adjusted to 0.1. Approximately 5×10^5 CFU/ml bacteria were incubated with serial peptide concentrations (1.17-150 μM) in a final volume of 100 μl in 10 mM sodium phosphate buffer containing 1% (w/v) TSB for 2 hours at 37° C. After incubation, 100 μl of 6% TSB (w/v) was added and absorbance was measured at 600 nm (Tecan, Switzerland) and monitored for 18 hours. Afterwards, 100 μl per well was plated on LB agar to determine the number of viable bacteria microbiologically. Bactericidal activity was expressed as the LC99.9, the lowest concentration that killed ≥99.9% of bacteria.

Data set [5] has as its system red blood cell. As to the kind of experiment: Hemolysis assay. Format: cell-based. Here is the method: as §1
A short description of data set [6]: Cellular toxicity, lactate dehydrogenase (LDH) assay. Format: cell-based. Here is the method: as §1
The test system of data set [7] is C. tropicalis. As to the kind of experiment: Broth microdilution assay, antifungal activity. Format: cell-based. Here is the method:
(§2) Methods: Broth microdilution assay. Candida was cultured in TSB over night at 37° C., centrifuged (1500 rpm, 10 min, RT) and washed twice with 10 mM sodium phosphate buffer containing 1% (w/v) TSB. Candida cells were counted and approximately 5×10^5 CFU/ml fungi were incubated with serial peptide concentrations (1.17-150 μM) in a final volume of 100 μl in 10 mM sodium phosphate buffer containing 1% (w/v) TSB for 2 hours at 37° C. After incubation, 100 μl of 6% TSB (w/v) was added and absorbance was measured at 600 nm (Tecan, Switzerland) and monitored for 18 hours. Afterwards, 100 μl per well was plated on YPD agar to determine the number of viable bacteria microbiologically.
For orientation: Dilution methods test growth across graded concentrations, often in twofold steps.

The subject of data set [8] is C. albicans. As to the kind of experiment: Broth microdilution assay, antifungal activity. It counts as cell-based. Here is the method:
as §2

Data set [9] concerns ypuA promoter. As to the kind of experiment: ypuA promoter luciferase reporter gene assay. It counts as cell-based, Bacillus subitilis 1S34. As to the method: A specific bacterial reporter strain with the genetic background of Bacillus subitilis 1S34, carrying the promoter of the ypuA gene, fused to the firefly luciferase reporter gene, was used to identify cell envelope-related damage caused by treatment with antimicrobial compounds. Bacteria were cultured to an OD600 of 0.9 in LB broth with 5 μg/ml erythromycin at 37° C. and diluted to an OD600 of 0.02. Serial peptide dilutions (0.15-150 μM) were prepared in a microtiter plate and incubated with the adjusted bacterial suspension at 37° C. for 1 hour. Subsequently, citrate buffer (0.1 M, pH 5) containing 2 mM luciferin (Iris Biotech, Germany) was added and luminescence was measured using a microplate reader (Tecan, Switzerland).
(Reporter assays use an easily measured gene product as a stand-in for the process of interest.)

For Pam2-Glc-Suc-RGKAKCCK [Pam-1], in data set [1], the “metabolic activity (WST-1 assay)” value was “normal metabolic activity”. In addition, in data set [2] (mouse, in vivo, po), the “histological examination of gastrointestinal, liver and kidney tissues” value is on record as “no alterations”; the “serum level of creatinine” value is given as “no significant differences between the groups”; the “serum level of glutamic oxaloacetic transaminase (GOT)” value is given as “no significant differences between the groups”. Further, the “acute toxicity (histological analysis and serum markers)” value in data set [2] (oral, mice, 24 hours after application, 125 or 250 μg doses) is given as “did not reveal any acute toxicity”. Further, the “CFU of S. Typhimurium in cecum content” value in data set [3] (250 μg orally 6 and 22 hours post infection, vs PBS, Mann-Whitney test) is “significantly reduced”. In addition, in data set [3] (mouse, in vivo), the “CFU's in gut content and gut tissue, acute model (summary)” value was “significant CFU reduction in the acute model and this only for gut content”. In data set [4], the bactericidal activity result is “no or low bactericidal activity”. Also, in data set [5], the “red blood cell disruption (hemolysis)” value is “minimal red blood cell disruption”. In data set [6], the “LDH activity (cytotoxicity)” value is on record as “no LDH activity”. Further, the “antifungal activity against C. tropicalis” value in data set [7] is reported as “no antifungal activity”. The “antifungal activity against C. albicans” value in data set [8] was “no antifungal activity”. For the same substance, the “cell envelope damage (ypuA reporter)” value in [9] is on record as “little cell envelope damage”.
